pEC50, pIC50: −log10 of the molar value.
Assays:
Influenza A virus [1] = assay: Antiviral activity against influenza A virus H1N1 subtype infected in dog MDCK cells assessed as reduction of virus-induced cytopathogenicity by MTS assay; format: functional, organism-based
Coxsackievirus [2] = assay: Antiviral activity against Coxsackievirus B4 infected in human HeLa cells assessed as reduction of virus-induced cytopathogenicity; format: functional, organism-based
MDCK = assay: (§1) Cytotoxicity against MDCK cells assessed as cell viability after 4 days by MTS assay; format: cell-based, Canis lupus familiaris; conditions: dog, mdck, 96 h
[3] = as §1; format: cell-based, Canis lupus familiaris; conditions: dog, MDCK cells
[4] = test system: Vesicular stomatitis virus; assay: Antiviral activity against Vesicular stomatitis virus infected in human HEL cells assessed as reduction of virus-induced cytopathogenicity; format: functional, organism-based
[5] = test system: Mammalian orthoreovirus 1; assay: Antiviral activity against Reovirus-1 infected in african green monkey Vero cells assessed as reduction of virus-induced cytopathogenicity; format: functional, organism-based; conditions: Mammalian orthoreovirus 1, Vero
Coxsackievirus [6] = assay: Antiviral activity against Coxsackievirus B4 infected in african green monkey Vero cells assessed as reduction of virus-induced cytopathogenicity; format: functional, organism-based
[7] = Inhibition of beta-hematin formation at 1 mg/ml; format: functional
Human alphaherpesvirus 1 [8] = assay: Antiviral activity against TK-negative Herpes simplex virus 1 KOS infected in human HEL cells assessed as reduction of virus-induced cytopathogenicity; format: functional, organism-based; conditions: Human alphaherpesvirus 1, KOS
Human alphaherpesvirus 3 [9] = assay: Antiviral activity against […] Varicella-zoster virus 07-1 infected in human HEL cells assessed as reduction of plaque formation; format: functional, organism-based; conditions: Human alphaherpesvirus 3, 07-1, HEL
Felid alphaherpesvirus 1 = assay: Antiviral activity against feline herpesvirus infected in cat CRFK cells assessed as reduction of virus-induced cytopathogenicity by MTS assay; format: functional, organism-based; conditions: Felid alphaherpesvirus 1, CRFK
Human alphaherpesvirus 3 [10] = assay: Antiviral activity against TK-positive Varicella-zoster virus OKA infected in human HEL cells assessed as reduction of plaque formation; format: functional, cell-based; conditions: Human alphaherpesvirus 3, strain Oka vaccine
[11] = test system: Vesicular stomatitis virus; assay: Antiviral activity against Vesicular stomatitis virus infected in human HeLa cells assessed as reduction of virus-induced cytopathogenicity; format: functional, organism-based
Cytomegalovirus [12] = assay: Antiviral activity against Cytomegalovirus AD-169 infected in human HEL cells assessed as reduction of plaque formation; format: functional, organism-based; conditions: Human betaherpesvirus 5, AD-169, HEL
Human respirovirus 3 = assay: Antiviral activity against Parainfluenza-3 virus infected in african green monkey Vero cells assessed as reduction of virus-induced cytopathogenicity; format: functional, organism-based; conditions: Human respirovirus 3, Vero
Plasmodium falciparum [13] = assay: Antimalarial activity against chloroquine-sensitive Plasmodium falciparum D10 by two-fold dilution technique; format: functional, organism-based
Cytomegalovirus [14] = assay: Antiviral activity against Cytomegalovirus Davis infected in human HEL cells assessed as reduction of plaque formation; format: functional, organism-based; conditions: Human betaherpesvirus 5, Davis
[15] = Cytotoxicity against human HeLa cells; format: cell-based
Sindbis virus = assay: Antiviral activity against Sindbis virus infected in african green monkey Vero cells assessed as reduction of virus-induced cytopathogenicity; format: functional, organism-based
Feline coronavirus = assay: Antiviral activity against Feline coronavirus infected in cat CRFK cells assessed as reduction of virus-induced cytopathogenicity by MTS assay; format: functional, organism-based; conditions: Alphacoronavirus 1, CRFK
[16] = Cytotoxicity against human HEL cells; format: cell-based
Influenza A virus [17] = assay: Antiviral activity against influenza A virus […] subtype infected in dog MDCK cells assessed as reduction of virus-induced cytopathogenicity by MTS assay; format: functional, organism-based; conditions: read-out: EC50
Influenza B virus = assay: Antiviral activity against influenza B virus infected in dog MDCK cells assessed as reduction of virus-induced cytopathogenicity by MTS assay; format: functional, organism-based
Human alphaherpesvirus 1 [18] = assay: Antiviral activity against Herpes simplex virus-1 KOS infected in human HEL cells assessed as reduction of virus-induced cytopathogenicity; format: functional, organism-based; conditions: Human alphaherpesvirus 1, KOS
[19] = test system: Respiratory syncytial virus; assay: Antiviral activity against Respiratory syncytial virus infected in human HeLa cells assessed as reduction of virus-induced cytopathogenicity; format: functional, organism-based
Punta Toro virus = assay: Antiviral activity against […] infected in african green monkey Vero cells assessed as reduction of virus-induced cytopathogenicity; format: functional, organism-based
Human alphaherpesvirus 2 = assay: Antiviral activity against Herpes simplex virus-2 G infected in human HEL cells assessed as reduction of virus-induced cytopathogenicity; format: functional, organism-based; conditions: Human alphaherpesvirus 2, strain G
[20] = Cytotoxicity against cat CRFK cells; format: cell-based, Felis catus; conditions: crfk
[21] = Cytotoxicity against african green monkey Vero cells; format: cell-based; conditions: chlorocebus sabaeus
DNA = assay: Binding affinity to calf thymus DNA assessed as change in melting temperature at 30 uM by UV-visible spectrophotometry; format: nucleic-acid assay; conditions: Bos taurus
Plasmodium falciparum [22] = assay: Antimalarial activity against chloroquine-resistant Plasmodium falciparum Dd2; format: functional, organism-based

SMILES | pEC50 (Influenza A virus [1]) | pEC50 (Coxsackievirus [2]) | MCC at 96 h [3] [µM] | pEC50 [4] | pEC50 [5] | pEC50 (Coxsackievirus [6]) | inhibition [7] [%] | pEC50 (Human alphaherpesvirus 3 [9]) | pEC50 (Human alphaherpesvirus 3 [10]) | pEC50 [11] | pEC50 (Human respirovirus 3) | MCC [15] [µM] | pEC50 (Sindbis virus) | MCC [16] [µM] | pEC50 (Influenza A virus [17]) | pEC50 (Influenza B virus) | pEC50 [19] | pEC50 (Punta Toro virus) | pEC50 (Human alphaherpesvirus 2) | MCC [21] [µM] | further results
CCOC(=O)c1c(C)nc(NCCCCNc2ccnc3cc(Cl)ccc23)nc1-c1ccc(F)cc1 | < 5.40 | < 4.00 | 20 | < 4.00 | < 5.40 | < 5.40 | 59 | < 5.40 | < 5.40 | < 4.00 | < 5.40 | > 100 | < 5.40 | ≥ 20 | < 5.40 | < 5.40 | < 4.00 | < 5.40 | < 4.00 | 20 | CC50 (MDCK): 11.4 µM; pEC50 (Human alphaherpesvirus 1 [8]): < 4.00; pEC50 (Felid alphaherpesvirus 1): < 4.00; pEC50 (Cytomegalovirus [12]): < 5.40; pIC50 (Plasmodium falciparum [13]): 5.56; pEC50 (Cytomegalovirus [14]): < 5.40; pEC50 (Feline coronavirus): < 4.00; pEC50 (Human alphaherpesvirus 1 [18]): < 4.00; CC50 [20]: > 100 µM
CCN(CC)CCCC(C)Nc1ccnc2cc(Cl)ccc12 (stereo not given) | – | – | – | – | – | – | 98 | – | – | – | – | – | – | – | – | – | – | – | – | – | ΔTm (DNA): 9 °C
CCOC(=O)c1c(C)nc(NCCCCNc2ccnc3cc(Cl)ccc23)nc1-c1ccccc1[N+](=O)[O-] | < 6.80 | < 4.70 | 0.8 | < 5.40 | < 6.10 | < 6.10 | 49 | < 5.40 | < 5.40 | < 4.70 | < 6.10 | 100 | < 6.10 | 20 | < 6.80 | < 6.80 | < 4.70 | < 6.10 | < 5.40 | 4 | CC50 (MDCK): 0.8 µM; pEC50 (Human alphaherpesvirus 1 [8]): < 5.40; pEC50 (Felid alphaherpesvirus 1): < 4.00; pEC50 (Cytomegalovirus [12]): < 5.40; pIC50 (Plasmodium falciparum [13]): 5.84; pEC50 (Cytomegalovirus [14]): < 5.40; pEC50 (Feline coronavirus): 5.05; pEC50 (Human alphaherpesvirus 1 [18]): < 5.40; CC50 [20]: > 100 µM
NC(=O)c1ncn([C@@H]2O[C@H](CO)[C@@H](O)[C@H]2O)n1 [RIBAVIRIN] | 5.60 | 3.95 | > 100 | – | < 3.60 | < 3.60 | – | – | – | – | 3.84 | > 250 | < 3.60 | – | 5.96 | 5.55 | – | – | – | > 250 | –
Nc1ncnc2c1ncn2C[C@H](O)CO [(S)-DHPA] | – | < 3.60 | – | – | < 3.60 | < 3.60 | – | – | – | < 3.60 | 3.84 | > 250 | < 3.60 | – | – | – | < 3.60 | < 3.60 | – | > 250 | –
CC(N)C12CC3CC(CC(C3)C1)C2 (stereo not given) [RIMANTADINE] | 5.19 | – | > 200 | – | – | – | – | – | – | – | – | – | – | – | 8.00 | < 3.70 | – | – | – | – | –
O=c1[nH]c(=O)n([C@H]2C[C@H](O)[C@@H](CO)O2)cc1/C=C/Br [BRIVUDINE] | – | – | – | < 3.60 | – | – | – | 3.84 | 5.42 | – | – | – | – | > 250 | – | – | – | – | 3.84 | – | –
CS(=O)(=O)c1ccc(-c2cnc(N)c(-c3ccc(C(F)(F)F)nc3)c2)cc1 [MMV-048] | – | – | – | – | – | – | – | – | – | – | – | – | – | – | – | – | – | – | – | – | pIC50 (Plasmodium falciparum [22]): 7.75
CCOC(=O)c1c(C)nc(NCCCCNc2ccnc3cc(Cl)ccc23)nc1-c1ccc(Cl)cc1 | < 6.10 | < 4.00 | ≥ 0.8 | < 4.70 | < 6.10 | < 6.10 | 56 | < 5.40 | < 5.40 | < 4.00 | < 6.10 | > 100 | < 6.10 | 20 | < 6.10 | < 6.10 | < 4.00 | < 6.10 | < 4.70 | 4 | CC50 (MDCK): 2.2 µM; pEC50 (Human alphaherpesvirus 1 [8]): < 4.70; pEC50 (Felid alphaherpesvirus 1): < 4.00; pEC50 (Cytomegalovirus [12]): < 5.40; pIC50 (Plasmodium falciparum [13]): 5.72; pEC50 (Cytomegalovirus [14]): < 5.40; pEC50 (Feline coronavirus): < 4.00; pEC50 (Human alphaherpesvirus 1 [18]): < 4.70; CC50 [20]: > 100 µM
